The source of these data is paper PMC9298260, “An Immunomodulatory Peptide Dendrimer Inspired from Glatiramer Acetate” (Angewandte Chemie (International Ed. in English), 2021).

Data set [1] deals with IL-1Ra release from human primary monocytes. Nature of the data set: IL-1Ra release from human primary monocytes, immunoassay (ELISA) of supernatants. The following applies: for Act. (ability to induce IL-1Ra): Table 1, 48 h, 25–50 μg mL^−1 compound; for IL-1Ra: 48 h. Set-up: key: +: Ability to induce IL‐1Ra on primary monocytes after 48 h of incubation in the presence of 25–50 μg mL^−1 compound; Ability to induce IL‐1Ra on primary monocytes after 48 h of incubation in the presence of 25–50 μg mL^−1 compound. In kind it is cell-based. How it is done: (§1) As an activity screen we focused on interleukin‐1 receptor antagonist (IL‐1Ra), a cytokine released by circulating antigen presenting cells (APC) in response to GA.[15, 35] […] To test our dendrimers, we quantified by immunoassay the release of IL‐1Ra from human primary monocytes of healthy donors, an easily accessible type of APC, stimulated or not by addition of lipopolysaccharide (LPS), which in our hands provided a reliable read‐out.[15] We tested at defined weight/volume (25 and 50 μg mL^−1 compound as typically reported for GA)[15, 35] to account for a possible activity increase with MW as often observed with dendrimers when using molarity. In the initial screen the levels of secreted IL‐1Ra remained below 1 ng mL^−1 for all the smaller test compounds as well as with the linear peptide analogs of GA.
(§2) Figure 2 Cytokine level of IL‐1Ra in supernatants of primary human monocytes of healthy donors treated with peptide dendrimers, evaluated by ELISA (bars, left vertical axis) and mRNA levels (▴, right vertical axis). […] For mRNA levels evaluation, 2×10^6 cells 3 mL^−1 in 6 well plates were incubated with 50 μg mL^−1 dendrimer or GA for 18 h. […]
(§3) Enzyme-linked immunosorbent assay (ELISA)
(§4) Monocytes (5×10^4 cells/200 μL well; 96-well plates) were preincubated for 1 h with or without compounds in RPMI-1640 medium supplemented with 10% heat-inactivated FBS, 50 μg/mL streptomycin, 50 U/mL penicillin, 2 mM L-glutamine, and 5 μg/mL polymyxin B sulfate and then cultured for 48 h in the presence or absence of LPS (100 ng/mL) (2). The production of IL-1Ra was measured in culture supernatants by commercially available enzyme immunoassay according to manufacture protocol.
(§5) Figure S2. Cytokine level of IL-1Ra in supernatants of monocytes for active dendrimers and analogues evaluated by ELISA assay on primary human monocytes of healthy donors. 5×10^4 cells/200 µL in 96 well plates, were incubated with dendrimers or GA as a control for 48 h in presence or absence of LPS (100 ng/mL), in a range of concentrations (50-25 µg/mL) (mean ± SD, n = 2 different experiments). The results are present as the difference between each sample and the non-treated sample to take into account the difference between base line for each donor.
(§6) Figure S3. Cytokine level of IL-1Ra in supernatants of monocytes for active dendrimers and […]
(§7) presence or absence of LPS (100 ng/mL), in a range of concentrations (100-12.5 µg/mL) (mean ± SD, n = 3 different experiments). […]

For data set [2] the test system is unchanged. Described as above. Set-up: key: +: Ability to induce IL-1Ra on primary monocytes after 48 h of incubation; Ability to induce IL-1Ra on primary monocytes after 48 h of incubation. Format: cell-based. Particulars: for Act. (ability to induce IL-1Ra): primary monocytes, 48 h; for IL-1Ra: ability to induce IL-1Ra on primary monocytes after 48 h of incubation, class + / -. The procedure: as §1, §2, §3, §4, §5, §6, §7

For data set [3] the test system is unchanged. The description is as above. The following applies: primary human monocytes of healthy donors, 25 and 50 μg mL^−1, 48 h. In kind it is cell-based. The procedure: as §1, §2, §3, §4, §5, §6, §7
The test system of data set [4] is lymphocytes. As to the kind of experiment: IL-1Ra in supernatants of lymphocytes (rest of leukocytes after Percoll), ELISA. In kind it is cell-based, human. Particulars: rest of leukocytes after Percoll gradient, 50-25 µg/mL, 48 h, n = 2. The procedure: Similar donor dependent responses of cytokine release to GA have been reported for IL‐27.[38]
Figure S3. Cytokine level of IL-1Ra in supernatants of monocytes for active dendrimers and analogues evaluated by ELISA assay on primary human monocytes of healthy donors. 5×10^4 cells/200 µL in 96 well plates, were incubated with dendrimers or GA as a control for 48 h in presence or absence of LPS (100 ng/mL), in a range of concentrations (100-12.5 µg/mL) (mean ± SD, n = 3 different experiments).
Figure S4. Cytokine level of IL-1Ra in supernatants of monocytes enriched fraction (a) and the rest of leukocytes (b) for active dendrimers and analogues evaluated by ELISA assay.
Monocytes fraction was separated from whole PBMC by Percoll density gradient centrifugation. 5×10^4 cells/200 µL in 96 well plates were incubated with dendrimers or GA (50-25 µg/mL) as a control for 48 h (mean ± SD, n = 2 different experiments). […]
Background: An ELISA detects its analyte on a solid surface through an enzyme-linked reagent.

Data set [5] can be described thus: Circular dichroism spectroscopy. Format: physicochemical. Particulars: 100 μg/mL, 8 mM phosphate buffer pH 7.2/7.4. The procedure: In terms of stereochemistry, activity was lost with D‐enantiomers D‐1 and D‐4, similar to the inactivity reported for D‐enantiomeric GA.[2]
Circular dichroism (CD) experiments were measured on a Jasco J-715 Spectropolarimeter. All the experiments were performed using Hellma Suprasil 110-QS 0.1 cm cuvettes. For each peptide, the measurements were performed in phosphate buffer (PB, pH=7.2, 8 mM) and in the presence of 5 mM dodecylphosphocholine. The concentration of the peptides was 100.0 μg/mL and each sample was measured using one accumulation. The scan rate was 10 nm/min, pitch 0.5 nm, response 16 sec and bandwidth 1.0 nm. The nitrogen flow was kept >8.5 L/min. After each measurement, the cuvettes were washed successively with 1 M HCl, milli-Q H2O and PB buffer. The baseline was recorded under the same conditions and subtracted manually.
Figure S12. Circular dichroism spectra of GA, 1 and 4 (100 μg/mL) in 8 mM phosphate buffer at pH 7.4 (a) or in presence of 5 mM dodecylphosphocholine. Percentage of α-helix and β- sheet was processed by Dichroweb using the CONTIN analysis program and reference set 3.
(1 picture or pasted object on this page, not shown here)
A general note: CD spectra are sensitive to the conformation of chiral molecules.

The conditions of data set [6]: cited from earlier work.

As for (KAK)4(KEKA)2KAKEAYCA-NH2 [compound 33], the “Act. (ability to induce IL-1Ra)” value in data set [1] is “−”; in data set [2] (Table S2 analogs of 1 and 4), “-”. The IL-1Ra entry in data set [2] is “-”.

On to “(KA)8(KAK)4(KEKA)2KAKEAYC(Fluo)A-NH2 [1Fl, analog of 1 bearing a fluorescein label at the dendrimer core]”, for which the “Act. (ability to induce IL-1Ra)” value in data set [1] is on record as “+”; in data set [2] (Table S2 analogs of 1 and 4), “+”. Further, the IL-1Ra entry in data set [1] (supplement s001.csv), in data set [1] (supplement s003.zip SMILES csv) and in data set [2] was “+” in each case.

As to (KA)8(KAK)4(KEKA)2KAKEAYCA-NH2 [sr-1], in data set [3], the “IL-1Ra release activity (in words)” value was “as active as the pure L‐enantiomers”. In addition, the “Act. (ability to induce IL-1Ra)” value in data set [1] is “+”; in data set [2] (Table S2 analogs of 1 and 4), “+”. Further, the IL-1Ra entry in data set [1] (supplement s001.csv), in data set [1] (supplement s003.zip SMILES csv) and in data set [2] was “+” throughout.

In the case of “(KA)8(KKKAK)4(KEKA)2KAKEAYCA-NH2 [compound 36]”, the “IL-1Ra release activity (in words)” value in data set [3] is listed as “preserved”. Also, the “Act. (ability to induce IL-1Ra)” value in data set [1] was “+”; in data set [2] (Table S2 analogs of 1 and 4) it was “+”. In addition, the IL-1Ra entry in data set [1] (supplement s001.csv) was “+”; in data set [2] it was “-”.

For the substance “(FumKA)8(KKAKE)4(KYKAKA)2KAYKKA-OH [Fum4]”, in data set [3], the “IL-1Ra release activity (in words)” value is “abolished”. Further, in data set [2] (Table S1 initial library), the “Act. (ability to induce IL-1Ra)” value is “-”. Also, the IL-1Ra result in data set [2] is “-”.

For the substance “(KK)8(KAK)4(KEKA)2KAKEAYCA-NH2 [compound 35]”, the “IL-1Ra release activity (in words)” value in data set [3] is given as “preserved”. The “Act. (ability to induce IL-1Ra)” value was “+” in data set [1]; “+” in data set [2] (Table S2 analogs of 1 and 4). Besides, the IL-1Ra result in data set [1] (supplement s001.csv), in data set [1] (supplement s003.zip SMILES csv) and in data set [2] was “+” throughout.

As to “(KA)8(KAK)4(KEKA)2KAKEAYCA-NH2)2 (disulfide) [1-1, disulfide bridged dimer of 1]”, the “IL-1Ra release activity (in words)” value in data set [3] is listed as “active”. In addition, the “Act. (ability to induce IL-1Ra)” value is recorded as “+” in data set [1]; “+” in data set [2] (Table S2 analogs of 1 and 4). Also, the IL-1Ra result in data set [1] (supplement s001.csv), in data set [1] (supplement s003.zip SMILES csv) and in data set [2] was “+” in each case.

For “(AK)8(KAK)4(KEKA)2KAKEAYCA-NH2 [compound 34]”, the “IL-1Ra release activity (in words)” value in data set [3] is “preserved”. The “Act. (ability to induce IL-1Ra)” value in data set [1] was “+”; in data set [2] (Table S2 analogs of 1 and 4), “+”. The IL-1Ra entry in data set [1] (supplement s001.csv), in data set [1] (supplement s003.zip SMILES csv) and in data set [2] was “+” throughout.

With “(FumKA)8(KKKAK)4(KEKA)2KAKEAYCA-NH2 [Fum36]”, the “IL-1Ra release activity (in words)” value in data set [3] is on record as “preserved”. For the same substance, the “Act. (ability to induce IL-1Ra)” value is recorded as “+” in data set [1]; “+” in data set [2] (Table S2 analogs of 1 and 4). Further, the IL-1Ra result in data set [1] (supplement s001.csv), in data set [1] (supplement s003.zip SMILES csv) and in data set [2] was “+” in each case.

(AcKA)8(KAK)4(KEKA)2KAKEAYCA-NH2 [Ac1]: the “IL-1Ra release activity (in words)” value in data set [3] is reported as “abolished”. For the same substance, the results for the “Act. (ability to induce IL-1Ra)” value in data set [1] and in data set [2] (Table S1 initial library) were “−” and “-”, respectively. For the same substance, the IL-1Ra entry in data set [2] was “-”.

For “Glatiramer acetate [GA, reference compound]”, in data set [4], the “induction of IL-1Ra in lymphocytes” value is on record as “did not occur”. In addition, in data set [1], the “Act. (ability to induce IL-1Ra)” value is reported as “+”. For the same substance, the “conformation by CD spectra” value in data set [5] is on record as “α‐helical”. Besides, the “crossing of the BBB” value in data set [6] was “does not cross the BBB”.

With “(AK)8(KAKAKY)4(KAKEYEY)2KAKEYEY-NH2 [compound 5]”, the results for the “Act. (ability to induce IL-1Ra)” value in data set [1] and in data set [2] (Table S1 initial library) were “−” and “-”, respectively. Further, the IL-1Ra entry in data set [2] is recorded as “-”.

In the case of “(FumKA)8(KAK)4(KEKA)2KAKEAYCA-NH2 [Fum1]”, the “IL-1Ra release activity (in words)” value in data set [3] is given as “abolished”. Besides, the “Act. (ability to induce IL-1Ra)” value in data set [2] (Table S1 initial library) is “-”. Also, the IL-1Ra result in data set [2] is on record as “-”.

In the case of “(KAEKAYA)4(KEKYAKA)2KEKYKA-NH2 [compound 2]”, the figures for the “Act. (ability to induce IL-1Ra)” value in data set [1] and in data set [2] (Table S1 initial library) were “−” and “-”, respectively. The IL-1Ra result in data set [2] is “-”.

“(AcKA)8(KKKAK)4(KEKA)2KAKEAYCA-NH2 [Ac36]”: the “IL-1Ra release activity (in words)” value in data set [3] is reported as “preserved”. Also, the “Act. (ability to induce IL-1Ra)” value in data set [1] was “+”; in data set [2] (Table S2 analogs of 1 and 4), “+”. The IL-1Ra result in data set [1] (supplement s001.csv), in data set [1] (supplement s003.zip SMILES csv) and in data set [2] was “+” each time.

As for (KA)8(KKAKE)4(KYKAKA)2KAYKKA-OH [sr-4], the “IL-1Ra release activity (in words)” value in data set [3] is recorded as “as active as the pure L‐enantiomers”. Moreover, the “Act. (ability to induce IL-1Ra)” value in data set [1] is recorded as “+”; in data set [2] (Table S2 analogs of 1 and 4), “+”. Further, the IL-1Ra result in data set [1] (supplement s001.csv), in data set [1] (supplement s003.zip SMILES csv) and in data set [2] was “+” in each case.
